Experimental data taken from ChEMBL document CHEMBL5370591, “A Potent and Narrow-Spectrum Antibacterial against Clostridioides difficile Infection” (J Med Chem, 2023).
Values after ≈ are worked out from the molar mass of the structure shown. Active and inactive are the calls of the source. The calls are words filed in the database; no cut-off is given here.

Tests used:
[1] = system: Clostridioides difficile; experiment: Antibacterial activity against Clostridium difficile ATCC 43255 measured after 48 hrs by two fold serial dilution method; assay type: functional
[2] = system: THP-1; experiment: Cytotoxicity against human THP-1 cells assessed as increase in LDH release incubate for 24 hrs by trypan-blue staining based analysis; assay type: functional, cell-based; details: THP-1, 24 h
[3] = Selectivity ratio of IC50 for human THP-1 cells to MIC for Clostridium difficile ATCC 43255; assay type: toxicity
[4] = system: HepG2; experiment: Antiproliferative activity against human HepG2 cells assessed as inhibition of cell growth by XTT assay; assay type: functional, cell-based
[5] = Selectivity ratio of IC50 for human HepG2 cells to MIC for Clostridium difficile ATCC 43255; assay type: toxicity
[6] = system: Clostridioides difficile; experiment: Bactericidal activity against Clostridium difficile ATCC 43255 incubated for 48 hrs under anaerobic conditions; assay type: functional
[7] = Selectivity ratio of MBC for bactericidal activity against Clostridium difficile ATCC 43255 to MIC for antibacterial activity for Clostridium difficile ATCC 43255; assay type: functional, Clostridioides difficile
[8] = system: Clostridioides difficile; experiment: Antibacterial activity against Clostridium difficile ATCC 43255 assessed as log reduction in bacterial growth at 1 to 8 times MIC measured upto 48 hrs under anaerobic condition; assay type: functional
[9] = system: Clostridioides difficile; experiment: Antibacterial activity against Clostridium difficile ATCC 43255 isolated from abdominal wound assessed as inhibition of bacterial growth measured after 48 hrs by two fold serial dilution method; assay type: functional
[10] = system: Clostridioides difficile; experiment: Antibacterial activity against Clostridium difficile BAA-1870 assessed as inhibition of bacterial growth measured after 48 hrs by two fold serial dilution method; assay type: functional
[11] = system: Clostridioides difficile; experiment: Antibacterial activity against Clostridium difficile BAA-1803 clinical isolate assessed as inhibition of bacterial growth measured after 48 hrs by two fold serial dilution method; assay type: functional
[12] = system: Clostridioides difficile; experiment: Antibacterial activity against Clostridium difficile NR49310 isolated from human feces assessed as inhibition of bacterial growth measured after 48 hrs by two fold serial dilution method; assay type: functional
[13] = system: Clostridioides difficile; experiment: Antibacterial activity against Clostridium difficile NR49294 isolated from human feces assessed as inhibition of bacterial growth measured after 48 hrs by two fold serial dilution method; assay type: functional
[14] = system: Clostridioides difficile; experiment: Antibacterial activity against Clostridium difficile NR49305 isolated from human feces assessed as inhibition of bacterial growth measured after 48 hrs by two fold serial dilution method; assay type: functional
[15] = system: Clostridioides difficile; experiment: Antibacterial activity against Clostridium difficile NR49318 isolated from human feces assessed as inhibition of bacterial growth measured after 48 hrs by two fold serial dilution method; assay type: functional
[16] = system: Clostridioides difficile; experiment: Antibacterial activity against Clostridium difficile NR49292 assessed as inhibition of bacterial growth measured after 48 hrs by two fold serial dilution method; assay type: functional
[17] = system: Clostridioides difficile; experiment: Antibacterial activity against Clostridium difficile NR49302 isolated from human feces assessed as inhibition of bacterial growth measured after 48 hrs by two fold serial dilution method; assay type: functional
[18] = system: Clostridioides difficile; experiment: Antibacterial activity against Clostridium difficile 26675 clinical isolate assessed as inhibition of bacterial growth measured after 48 hrs by two fold serial dilution method; assay type: functional
[19] = system: Clostridioides difficile; experiment: Antibacterial activity against Clostridium difficile 23828 clinical isolate assessed as inhibition of bacterial growth measured after 48 hrs by two fold serial dilution method; assay type: functional
[20] = system: Clostridioides difficile; experiment: Antibacterial activity against Clostridium difficile 24531 clinical isolate assessed as inhibition of bacterial growth measured after 48 hrs by two fold serial dilution method; assay type: functional
[21] = system: Staphylococcus aureus; experiment: Antibacterial activity against methicillin/oxacillin/tetracycline resistant vancomycin resistant Staphylococcus aureus NRS100 assessed as inhibition of bacterial growth measured after 48 hrs by two fold serial dilution method; assay type: functional
[22] = system: Staphylococcus aureus; experiment: Antibacterial activity against ciprofloxacin/gentamicin/oxacillin/pencillin/linezolid resistant Staphylococcus aureus NRS119 assessed as inhibition of bacterial growth measured after 48 hrs by two fold serial dilution method; assay type: functional
[23] = system: Staphylococcus haemolyticus; experiment: Antibacterial activity against Staphylococcus haemolyticus ATCC 29970 assessed as inhibition of bacterial growth measured after 48 hrs by two fold serial dilution method; assay type: functional
[24] = system: Streptococcus pyogenes; experiment: Antibacterial activity against Streptococcus pyogenes ATCC 49399 assessed as inhibition of bacterial growth measured after 48 hrs by two fold serial dilution method; assay type: functional
[25] = system: Enterococcus faecalis; experiment: Antibacterial activity against vancomycin resistant Enterococcus faecalis 99 clinical isolate assessed as inhibition of bacterial growth measured after 48 hrs by two fold serial dilution method; assay type: functional
[26] = system: Enterococcus faecium; experiment: Antibacterial activity against vancomycin susceptible Enterococcus faecium119-39A clinical isolate assessed as inhibition of bacterial growth measured after 48 hrs by two fold serial dilution method; assay type: functional; details: 119-39A
[27] = system: Enterococcus faecium; experiment: Antibacterial activity against vancomycin resistant Enterococcus faecium 106 clinical isolate assessed as inhibition of bacterial growth measured after 48 hrs by two fold serial dilution method; assay type: functional
[28] = system: Bacteroides fragilis; experiment: Antibacterial activity against Bacteroides fragilis HM-709 assessed as inhibition of bacterial growth measured after 48 hrs by two fold serial dilution method; assay type: functional
[29] = system: Corynebacterium sp.; experiment: Antibacterial activity against Corynebacterium sp. HM-784 assessed as inhibition of bacterial growth measured after 48 hrs by two fold serial dilution method; assay type: functional
[30] = system: Limosilactobacillus reuteri; experiment: Antibacterial activity against Lactobacillus reuteri HM-102 assessed as inhibition of bacterial growth measured after 48 hrs by two fold serial dilution method; assay type: functional
[31] = system: Lactobacillus gasseri; experiment: Antibacterial activity against Lactobacillus gasseri HM-644 assessed as inhibition of bacterial growth measured after 48 hrs by two fold serial dilution method; assay type: functional
[32] = system: Eubacterium sp.; experiment: Antibacterial activity against Eubacterium sp. HM-178 assessed as inhibition of bacterial growth measured after 48 hrs by two fold serial dilution method; assay type: functional
[33] = system: Klebsiella pneumoniae; experiment: Antibacterial activity against Klebsiella pneumoniae ATCC700603 assessed as inhibition of bacterial growth measured after 48 hrs by two fold serial dilution method; assay type: functional
[34] = system: Acinetobacter baumannii; experiment: Antibacterial activity against Acinetobacter baumannii ATCC17961 assessed as inhibition of bacterial growth measured after 48 hrs by two fold serial dilution method; assay type: functional
[35] = system: Pseudomonas aeruginosa; experiment: Antibacterial activity against Pseudomonas aeruginosa ATCC27853 assessed as inhibition of bacterial growth measured after 48 hrs by two fold serial dilution method; assay type: functional
[36] = system: Klebsiella aerogenes; experiment: Antibacterial activity against Klebsiella aerogenes ATCC35029 assessed as inhibition of bacterial growth measured after 48 hrs by two fold serial dilution method; assay type: functional
[37] = system: Escherichia coli; experiment: Antibacterial activity against Escherichia coli ATCC25922 assessed as inhibition of bacterial growth measured after 48 hrs by two fold serial dilution method; assay type: functional
[38] = system: Clostridioides difficile; experiment: Antibacterial activity against Clostridium difficile ATCC 43255 assessed as as time duration of post-antibiotic effect for suppression of bacterial growth at 2 times MIC incubated for 1 hr in broth solution; assay type: functional
[39] = system: Clostridioides difficile; experiment: Antibacterial activity against Clostridium difficile ATCC 43255 assessed as as time duration of post-antibiotic effect for suppression of bacterial growth at 1 time MIC incubated for 1 hr in broth solution; assay type: functional
[40] = system: Clostridioides difficile; experiment: Antibacterial activity against Clostridium difficile ATCC 43255 assessed as as time duration of post-antibiotic effect for suppression of bacterial growth at 4 times MIC incubated for 1 hr in broth solution; assay type: functional
[41] = system: Clostridioides difficile; experiment: Antibacterial activity against Clostridium difficile ATCC 43255 assessed as as time duration of post-antibiotic effect for suppression of bacterial growth at 8 times MIC incubated for 1 hr in broth solution; assay type: functional
[42] = system: Clostridioides difficile; experiment: Induction of resistance against Clostridium difficile ATCC 43255 assessed as fold increase in MIC measured after 8 passages under anaerobic conditions; assay type: functional
[43] = system: Clostridioides difficile; experiment: Induction of resistance against Clostridium difficile ATCC 43255 assessed as fold increase in MIC measured after 14 passages under anaerobic conditions; assay type: functional
[44] = system: Clostridioides difficile; experiment: Induction of resistance against Clostridium difficile ATCC 43255 assessed as fold increase in MIC measured after 20 passages under anaerobic conditions; assay type: functional
[45] = system: Clostridioides difficile; experiment: Antibacterial activity against Clostridium difficile ATCC 43255 assessed as damage in cell wall at 8 time MIC incubated for 24 hrs by scanning electron microscopy based analysis; assay type: functional, organism-based

In the case of O=[N+]([O-])c1c[nH]c(-c2nc(-c3ccc(OC4CCCC4)cc3)no2)n1, the MIC [1] is reported as 0.25 µg/mL (≈ 0.732 µM), the IC50 [2] is reported as greater than 128 µg/mL and the selectivity ratio [3] is reported as greater than 512. It also gave an IC50 [4] of 53.4 µg/mL (≈ 156 µM), a selectivity ratio [5] of 214 and an MBC [6] of 0.5 µg/mL (≈ 1.46 µM). For the same compound, the Ratio [7] was 2, the Activity [8] was 4 log10CFU/ml and the MIC [9] was 0.25 µg/mL (≈ 0.732 µM). It also gave an MIC [10] of 0.125 µg/mL (≈ 0.366 µM), an MIC [11] of 0.125 µg/mL (≈ 0.366 µM) and an MIC [12] of 0.25 µg/mL (≈ 0.732 µM). The MIC [13] was 0.5 µg/mL (≈ 1.46 µM), the MIC [14] was 0.125 µg/mL (≈ 0.366 µM) and the MIC [15] was 0.5 µg/mL (≈ 1.46 µM). The MIC [16] was 0.125 µg/mL (≈ 0.366 µM), the MIC [17] was 0.25 µg/mL (≈ 0.732 µM) and the MIC [18] was 2 µg/mL (≈ 5.86 µM). The MIC [19] was 1 µg/mL (≈ 2.93 µM), the MIC [20] was 0.125 µg/mL (≈ 0.366 µM) and the MIC [21] was 64 µg/mL (≈ 188 µM). The MIC [22] was 32 µg/mL (≈ 93.8 µM), the MIC [23] was 32 µg/mL (≈ 93.8 µM) and the MIC [24] was greater than 128 µg/mL. The MIC [25] was 128 µg/mL (≈ 375 µM), the MIC [26] was 128 µg/mL (≈ 375 µM) and the MIC [27] was 128 µg/mL (≈ 375 µM). It also gave an MIC [28] of 128 µg/mL (≈ 375 µM), an MIC [29] greater than 128 µg/mL and an MIC [30] greater than 128 µg/mL. It also gave an MIC [31] greater than 128 µg/mL, an MIC [32] of 64 µg/mL (≈ 188 µM) and an MIC [33] greater than 128 µg/mL. It also gave an MIC [34] greater than 128 µg/mL, an MIC [35] greater than 128 µg/mL and an MIC [36] greater than 128 µg/mL. The MIC [37] was greater than 128 µg/mL, the Time [38] was 5 h and the Time [39] was 3 h. The Time [40] was 7 h, the Time [41] was 7 h and the “fold change (FC)” value [42] was 2. For the same compound, the “fold change (FC)” value [43] was 4, the “fold change (FC)” value [44] was 8 and the Activity [45] was “Active”.
